According to patent publication US7906501B2, “Pyrrole derivatives with angiotensin II antagonist activity” (Rottapharm S.p.A., priority 2004, dated 2011):

Columns and labels:
in vitro = settings: human, Caco-2
Description: (§1) Gres et al. Pharm.; Res. 15 (1998), pages 726-733].
(§2) A→B permeability was thus assessed, namely the apparent permeability coefficient (Papp), of the compounds under investigation, tested at a concentration of 50 μM with an incubation time of 60 minutes, in the apical-to-basolateral direction. B→A permeability is reversely assessed, i.e. in a basolateral-to-apical direction, with an incubation time of 40 minutes.

TC7 cell monolayer = test: in vitro; settings: human, Caco-2, 50 μM
Description: as §1, §2

AT1 receptor = target: T1, AT1 receptor (Rattus norvegicus, UniProt P25095); test: Inhibition of [125I]Sar1,Ile8-angiotensin II binding in rat liver membranes; settings: for IC50: rat liver membranes
T1 construct: from tissue; host or cells: rat liver membranes
T1 sequence (P25095 1-359): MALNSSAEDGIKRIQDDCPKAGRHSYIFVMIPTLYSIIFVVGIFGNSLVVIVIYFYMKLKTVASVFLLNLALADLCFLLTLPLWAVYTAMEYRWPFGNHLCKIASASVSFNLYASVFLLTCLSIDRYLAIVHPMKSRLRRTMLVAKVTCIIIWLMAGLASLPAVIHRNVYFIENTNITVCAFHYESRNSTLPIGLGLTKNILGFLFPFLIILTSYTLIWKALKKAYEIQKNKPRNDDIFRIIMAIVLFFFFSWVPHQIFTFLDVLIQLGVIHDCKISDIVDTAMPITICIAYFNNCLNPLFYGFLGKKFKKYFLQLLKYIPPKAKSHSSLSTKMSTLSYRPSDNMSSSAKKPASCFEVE
Description: Antagonist activity at the AT1 receptor on the part of compounds provided by the invention was assessed as the capacity to inhibit binding of the specific AII agonist to rat liver membranes. The method described by R. S. L. Chang et al., [JPET (1992), 262, 133-38] and M. J. Robertson et al., [Br. J. Pharmacol. (1992), 107, 1173-1180] was used with slight modifications. The concentration of radioligand [[…]]-Sar1, Ile^8-angiotensin II used was 25 pM with a membrane content corresponding to a protein concentration of approx. 25 μg of protein per sample; the incubation time was 180 minutes at 25° C. Separation of the bound from the free was carried out by rapid filtration on GFB Millipore glass fibre filters.

[1] = system: renally hypertensive rat (RHR); test: Reduction in systolic arterial pressure in the RHR rat after I.P. administration; type: in vivo; settings: for Max. effect at 15 mg/kg (% reduction vs. basal): 0-120 min, systolic pressure; for ED15 (0-120 min): sodium salts, doses 5-20 mg/kg, dose giving 15% reduction in average basal systolic pressure, NC = not calculable, effect < 10% at all doses
[2] = system: spontaneously hypertensive rat (SHR); test: Reduction in systolic arterial pressure in the SHR rat after I.P. administration; type: in vivo; settings: for Max. effect at 15 mg/kg (% reduction vs. basal): 0-120 min, systolic pressure; for ED15 (0-120 min): sodium salts, doses 5-20 mg/kg, dose giving 15% reduction in average basal systolic pressure, NC = not calculable, effect < 10% at all doses
[3] = displacement of 25 pM [125I]-Sar1,Ile8-angiotensin II, 180 min at 25° C.

CCCCc1cc(CC(C)C)c(C=O)n1Cc1ccc(-c2ccccc2-c2nnn[nH]2)cc1 [Compound 1, 5-n-Butyl-1-[2′-(1H-tetrazol-5-yl)biphenyl-4-yl-methyl]-3-[3-(2-methyl)propyl]-2-pyrrolaldehyde]
Papp A→B at 60 min, 50 μM (in vitro): 27.9 ×10⁻⁶ cm/s
Papp B→A at 40 min, 50 μM (in vitro): 3.4 ×10⁻⁶ cm/s
Ratio (1/2) (TC7 cell monolayer): 8.2
melting point: 148 °C
times more potent than the BPT-pyrrole derivative of EP-0323841 (AT1 receptor; 8.9 nM vs. 1.6 μM of compound 277 of EP 0 323 841): approx. 200 times
IC50 (AT1 receptor; AT1 binding): 8.9 nM
times less potent than valsartan and eprosartan in vitro (AT1 receptor; respectively vs. valsartan and eprosartan): approx. ⅗
Max. effect at 15 mg/kg (% reduction vs. basal) [1]: 22.1 % reduction vs. basal
ED15 (0-120 min) [1]: 12.6 mg/kg
Max. effect at 15 mg/kg (% reduction vs. basal) [2]: 16.0 % reduction vs. basal
ED15 (0-120 min) [2]: 17.4 mg/kg

CCCc1ccc(C=O)n1Cc1ccc(-c2ccccc2-c2nnn[nH]2)cc1 [Compound 2, 5-n-Propyl-1-[2′-(1H-tetrazol-5-yl)biphenyl-4-yl-methyl]-2-pyrrolaldehyde]
melting point: 104 °C
IC50 (AT1 receptor; [3]): 72.5 nM

CCCc1c(Br)cc(C=O)n1Cc1ccc(-c2ccccc2-c2nnn[nH]2)cc1 [Compound 3, 4-Bromo-5-n-propyl-1-[2′-(1H-tetrazol-5-yl)biphenyl-4-yl-methyl]-2-pyrrolaldehyde]
melting point: 167 °C
IC50 (AT1 receptor; [3]): 1050 nM

CCCc1c(Cl)cc(C=O)n1Cc1ccc(-c2ccccc2-c2nnn[nH]2)cc1 [Compound 4, 4-Chloro-5-n-propyl-1-[2′-(1H-tetrazol-5-yl)biphenyl-4-yl-methyl]-2-pyrrolaldehyde]
melting point: 150 °C
IC50 (AT1 receptor; [3]): 615 nM

CCCc1cc(C(C)C)c(C=O)n1Cc1ccc(-c2ccccc2-c2nnn[nH]2)cc1 [Compound 5, 5-n-Propyl-3-isopropyl-1-[2′-(1H-tetrazol-5-yl)biphenyl-4-yl-methyl]-2-pyrrolaldehyde]
melting point: 180 °C
IC50 (AT1 receptor; [3]): 35.7 nM

CCCCc1cc(C(C)C)c(C=O)n1Cc1ccc(-c2ccccc2-c2nnn[nH]2)cc1 [Compound 6, 5-n-Butyl-3-isopropyl-1-[2′-(1H-tetrazol-5-yl)biphenyl-4-yl-methyl]-2-pyrrolaldehyde]
Papp A→B at 60 min, 50 μM (in vitro): 15.4 ×10⁻⁶ cm/s
Papp B→A at 40 min, 50 μM (in vitro): 1 ×10⁻⁶ cm/s
Ratio (1/2) (TC7 cell monolayer): 15.4
melting point: 174 °C
IC50 (AT1 receptor; [3]): 15.3 nM
Max. effect at 15 mg/kg (% reduction vs. basal) [1]: 18.7 % reduction vs. basal
ED15 (0-120 min) [1]: 16.0 mg/kg
Max. effect at 15 mg/kg (% reduction vs. basal) [2]: 13.2 % reduction vs. basal
ED15 (0-120 min) [2]: 19.3 mg/kg

CCCCc1ccc(C=O)n1Cc1ccc(-c2ccccc2-c2nnn[nH]2)cc1 [Compound 7, 5-n-Butyl-1-[2′-(1H-tetrazol-5-yl)biphenyl-4-yl-methyl]-2-pyrrolaldehyde]
melting point: 129 °C
IC50 (AT1 receptor; [3]): 66.5 nM

CCCCCc1cc(C(C)C)c(C=O)n1Cc1ccc(-c2ccccc2-c2nnn[nH]2)cc1 [Compound 8, 5-n-Pentyl-3-isopropyl-1-[2′-(1H-tetrazol-5-yl)biphenyl-4-yl-methyl]-2-pyrrolaldehyde]
melting point: 144 °C
IC50 (AT1 receptor; [3]): 105 nM

CC(C)CCc1cc(C(C)C)c(C=O)n1Cc1ccc(-c2ccccc2-c2nnn[nH]2)cc1 [Compound 9, 5-[(3-Methyl)butyl]-3-isopropyl-1-[2′-(1H-tetrazol-5-yl)biphenyl-4-yl-methyl]-2-pyrrolaldehyde]
melting point: 144 °C
IC50 (AT1 receptor; [3]): 37.2 nM

CCCc1ccc(C(=O)O)n1Cc1ccc(-c2ccccc2-c2nnn[nH]2)cc1 [Compound 10, 5-n-Propyl-1-[2′-(1H-tetrazol-5-yl)biphenyl-4-yl-methyl]-2-pyrrolecarboxylic acid]
melting point: 134 °C
IC50 (AT1 receptor; [3]): 475 nM

CCCc1cc(C(C)C)c(C(=O)O)n1Cc1ccc(-c2ccccc2-c2nnn[nH]2)cc1 [Compound 11, 5-n-Propyl-3-isopropyl-1-[2′-(1H-tetrazol-5-yl)biphenyl-4-yl-methyl]-2-pyrrolecarboxylic acid]
melting point: 170 °C
IC50 (AT1 receptor; [3]): 106 nM

CCCCc1ccc(C(=O)O)n1Cc1ccc(-c2ccccc2-c2nnn[nH]2)cc1 [Compound 12, 5-n-Butyl-1-[2′-(1H-tetrazol-5-yl)biphenyl-4-yl-methyl]-2-pyrrolecarboxylic acid]
melting point: 142 °C
IC50 (AT1 receptor; [3]): 268 nM

CCCc1ccc(CO)n1Cc1ccc(-c2ccccc2-c2nnn[nH]2)cc1 [Compound 13]
IC50 (AT1 receptor; [3]): 444 nM

Cc1ccc(C)n1Cc1ccc(-c2ccccc2-c2nnn[nH]2)cc1 [Compound 14, 2,5-Dimethyl-1-[2′-(1H-tetrazol-5-yl)biphenyl-4-yl-methyl]pyrrole]
melting point: 107 °C
IC50 (AT1 receptor; [3]): 10700 nM

CCCc1cc(C(C)C)c(C)n1Cc1ccc(-c2ccccc2-c2nnn[nH]2)cc1 [Compound 15, 2-Methyl-5-n-propyl-3-isopropyl-1-[2′-(1H-tetrazol-5-yl)biphenyl-4-yl-methyl]pyrrole]
melting point: 160 °C
IC50 (AT1 receptor; [3]): 1190 nM

CCCCc1ncc(/C=C(\Cc2cccs2)C(=O)O)n1Cc1ccc(C(=O)O)cc1 [Eprosartan, eprosartan, reference compound]
Papp A→B at 60 min, 50 μM (in vitro): 0.1 ×10⁻⁶ cm/s
Papp B→A at 40 min, 50 μM (in vitro): 0.4 ×10⁻⁶ cm/s
Max. effect at 15 mg/kg (% reduction vs. basal) [1]: 9.2 % reduction vs. basal
Max. effect at 15 mg/kg (% reduction vs. basal) [2]: 5.0 % reduction vs. basal

CCCCc1nc(Cl)c(CO)n1Cc1ccc(-c2ccccc2-c2nn[nH]n2)cc1 [Losartan, losartan]
Max. effect at 15 mg/kg (% reduction vs. basal) [1]: 18.9 % reduction vs. basal
ED15 (0-120 min) [1]: 16.4 mg/kg
Max. effect at 15 mg/kg (% reduction vs. basal) [2]: 12.0 % reduction vs. basal
ED15 (0-120 min) [2]: 25.4 mg/kg

CCCCC(=O)N(Cc1ccc(-c2ccccc2-c2nnn[nH]2)cc1)[C@H](C(=O)O)C(C)C [Valsartan, valsartan, reference compound]
Papp A→B at 60 min, 50 μM (in vitro): 0.2 ×10⁻⁶ cm/s
Papp B→A at 40 min, 50 μM (in vitro): 0.2 ×10⁻⁶ cm/s
Ratio (1/2) (TC7 cell monolayer): 1.0
IC50 (AT1 receptor; [3]): 3.4 nM
Max. effect at 15 mg/kg (% reduction vs. basal) [1]: 19.0 % reduction vs. basal
ED15 (0-120 min) [1]: 16.0 mg/kg
Max. effect at 15 mg/kg (% reduction vs. basal) [2]: 14.4 % reduction vs. basal
ED15 (0-120 min) [2]: 26.2 mg/kg
